Results published in patent US20090317414A1, “CANCER VACCINE COMPRISING A MUCIN 1 (MUC1) T CELL EPITOPE-DERIVED PEPTIDE” (4G VACCINES PTY LTD, priority 2006, published 2009).
pKd: −log10 of the molar value. Where two headings read alike, the source gives them in different places. No end group written: not given here.

Tests used:
soluble H-2K^b = molecular target: T1, soluble H-2K^b (Mus musculus, UniProt P01901); assay: Affinity measurements for binding of peptides to soluble H-2K^b (inhibition assay); conditions: for increase in peptide affinity compared to MUC1-8 (competition studies): discussion, temperature not stated
T1 construct: heavy chain residues 1-274 with C-terminal His-tag and β2-microglobulin residues 1-99; His-tag (C); made in house; host or cells: Drosophila melanogaster cells
T1 sequence (P01901 22-295): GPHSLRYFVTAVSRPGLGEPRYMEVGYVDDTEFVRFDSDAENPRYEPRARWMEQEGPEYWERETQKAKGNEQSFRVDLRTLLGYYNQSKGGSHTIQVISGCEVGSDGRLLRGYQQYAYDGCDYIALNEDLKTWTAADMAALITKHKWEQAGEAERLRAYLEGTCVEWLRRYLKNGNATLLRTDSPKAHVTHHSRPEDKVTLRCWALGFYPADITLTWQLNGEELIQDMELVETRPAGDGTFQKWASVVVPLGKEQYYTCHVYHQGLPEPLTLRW
T1 sequence (P01887 21-119 partner): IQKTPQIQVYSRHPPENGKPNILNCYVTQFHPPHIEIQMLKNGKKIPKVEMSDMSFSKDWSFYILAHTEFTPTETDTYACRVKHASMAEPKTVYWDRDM
Procedure: The soluble extracellular domains of H-2K^b (heavy chain […]-terminal His-tag and β2-microglobulin […]. melanogaster cells, under the control of a metallothionein promoter as previously described. Briefly, D. melanogaster cells were expanded to large scale (up to 6 L) in serum free Insect Xpress® media (Cambrex Corporation, East Rutherford, N.J., United States of America) and CuSO4 (625 μM final concentration) was added 3-5 days before harvesting to induce expression of H-2K^b. The supernatant was concentrated using a […] tangential flow concentrator (PALL Corporation, East Hills, N.Y., United States of America) using a 10 kDa MWCO membrane (PALL) and then loaded onto an Ni-NTA column and eluted using 10-250 mM imidazole buffer gradient, pH 7.5. […] Affinity measurements for binding of peptides to soluble H-2K^b molecules were performed as previously described.

[1] = test system: MCF7 cells (human MUC1^+ breast cancer cell line); conditions: HLA-A2 transgenic mice; previous studies [59]; cited from earlier work
[2] = test system: MUC1×HLA-A2 transgenic mice; assay: IFN-γ ELISpot on splenocytes of MUC1×HLA-A2 transgenic mice immunised with peptide-pulsed DC; format: in vivo, mouse; conditions: for recognition of all peptides higher than MUC1-8: MUC1×HLA-A2 transgenic mice
Procedure: (§1) C57BL/6 (H-2^b) or MUC1×HLA-A2 (H-2^b/H-2^d/HLA-A2) transgenic 6-8 week old mice were used. Bone marrow cells from C57BL/6 or MUC1×HLA-A2 female mice were cultured at 1×10^6 cells/ml in tissue culture media, supplemented with 10 ng/ml GM-CSF/IL-4. At day 6, cells were washed, re-suspended in the same culture media and 20 μg/ml peptides were loaded on DCs for 3 hr. Pulsed DC were washed and 100 μl (1-2×10^6 cells) injected intradermally in female mice into the base of tail. After 14 days mice were boosted and 16 days later splenocytes assessed by ELISpot.
(§2) To assess peptide specific IFN-γ production by CD8^+ T cells to each peptide, splenocytes from immunised mice were used in IFN-γ ELISpot assays. Spleen cells were incubated with 10^−5-10^−10 M of each MUC1 peptide, irrelevant peptide (OVA8, […]; SEQ ID NO: 8) or internal positive control concanavalin A (ConA) for 18 hr at 37° C., 8% CO2 on nitrocellulose plates [pre-coated with an anti-murine IFN-γ monoclonal antibody]. Plates were developed as previously described.

[3] = molecular target: T2, MHC class I, H-2K^b on RMA-S cells (Mus musculus, UniProt P01901); assay: Peptide stabilisation assay using RMA-S cells (FACScan); format: cell-based, murine; conditions: TAP2-deficient RMA-S cells at 26° C.
T2 construct: MHC class I molecules in the murine cell line RMA-S; endogenous in cells; host or cells: RMA-S (murine, C57BL/6, TAP2-deficient)
T2 sequence (P01901 22-369): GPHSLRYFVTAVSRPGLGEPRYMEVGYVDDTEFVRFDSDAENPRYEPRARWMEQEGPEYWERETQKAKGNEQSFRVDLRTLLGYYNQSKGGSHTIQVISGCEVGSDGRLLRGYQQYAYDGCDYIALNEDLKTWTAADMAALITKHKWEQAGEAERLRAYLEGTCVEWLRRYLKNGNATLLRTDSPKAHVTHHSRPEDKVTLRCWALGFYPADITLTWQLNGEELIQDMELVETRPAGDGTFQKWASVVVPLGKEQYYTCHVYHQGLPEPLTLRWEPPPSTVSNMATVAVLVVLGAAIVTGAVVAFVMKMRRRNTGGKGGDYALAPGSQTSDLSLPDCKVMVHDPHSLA
T2 sequence (P01887 21-119 partner): T1 sequence (P01887 21-119 partner)
Procedure: MHC class I molecules in the murine cell line RMA-S (C57BL/6 TAP2-deficient cells) can be used to measure the direct binding of peptides to class I molecules in vitro. RMA-S cells (5×10^5 cells) were incubated with peptides (10^−4-10^−13 M) at 26° C. for 3 hr then transferred to 37° C. for 30 min. After washing with 0.5% BSA/PBS (2 ml), anti-H-2K^b (HB-158) IgG2a as supernatant (1/50 dilution, 100 μl) was added to RMA-S peptide loaded cells and incubated for 45 minutes at 4° C. The cells were washed once again and 100 μl (1:500 dilution) of FITC-conjugated sheep (Fab′)2 anti-mouse immunoglobulin was added and incubated for 45 min at 4° C.; after further washing, cells were analyzed by FACScan.

C57BL/6 mice = assay: IFN-γ ELISpot on splenocytes of C57BL/6 mice immunised with peptide-pulsed DC; format: in vivo, mouse
Procedure: as §1, §2

HLA-A2 = HLA-A2 (Homo sapiens, UniProt P04439, D140Y/D185E/D98H/E176V/E277Q/G131W/G231S/I119V/I121R/I166T/I218V/L10V/L300P/L318F/N151K/N90K/P208A/P217A/Q86G/Q94H/R138H/R169H/T345S); conditions: cited from earlier work
[4] = test system: MCF7 cells (human MUC1^+ breast cancer cell line); assay: Standard 51Cr CTL assay after immunisation of HLA-A2/K^b transgenic mice; format: in vivo, mouse; conditions: HLA-A2 transgenic mice immunised with peptide-KLH-oxidised mannan
Procedure: Peptide was coupled to KLH via glutaraldehyde. In brief, 2 mg KLH in 1 ml phosphate buffer saline (PBS) and 2 mg peptide in 1 ml PBS were mixed and added dropwise to 1 ml of 0.75% glutaraldehyde, and reacted overnight at room temperature. Glutaraldehyde is a bi-functional coupling reagent that links two compounds through their amino groups.
14 mg mannan was dissolved in 1 ml sodium phosphate buffer (pH 6), followed by the addition of 100 μl 0.1 M sodium periodate (dissolved in pH 6 phosphate buffer) and incubated on ice for 1 hour in the dark. 10 μL ethanediol was then added to the mixture and incubated for a further 30 mins on ice. The resultant mixture (oxidised mannan) was passed through a PD-10 column (Sephadex G-25 M column) pre-equilibrated in pH 9.0 phosphate buffer, to exclude out sodium periodate and ethanediol. Oxidised mannan (7 mg/ml) was eluted with 2 ml of pH 9 phosphate buffer, to which 1 mg peptide-KLH was added and allowed to react overnight at room temperature in the dark. Conjugation occurs via Schiff base formation between free amino groups of KLH and oxidised mannan. Samples were used without further purification. […]
HLA-A2/K^b transgenic mice were immunised with 5 μg of peptide intraperitoneally on days 0, 10, 17 and 7-10 days later CTL responses were measured using standard CTL assay as previously described.

[5] = 4° C., means of 5 values, SE 10-15%, read-out: KD 4° C.
[6] = 23° C., means of 5 values, SE 10-15%, read-out: KD 23° C.
[7] = 37° C., means of 5 values, SE 10-15%, read-out: KD 37° C.

Compound	pKd (soluble H-2K^b; [5])	pKd (soluble H-2K^b; [6])	pKd (soluble H-2K^b; [7])	increase in peptide affinity compared to MUC1-8 (competition studies) (soluble H-2K^b) [fold]	peptide concentration at which H-2K^b was stabilised [3]	further results
CC[C@H](C)[C@H](NC(=O)[C@@H](NC(=O)[C@@H](N)CO)[C@@H](C)CC)C(=O)N[C@@H](CC(N)=O)C(=O)N[C@@H](Cc1ccccc1)C(=O)N[C@@H](CCC(=O)O)C(=O)N[C@@H](CCCCN)C(=O)N[C@@H](CC(C)C)C(=O)O [OVA8, reference compound]	8.22	8.00				
CC(C)C[C@H](NC(=O)CNC(=O)[C@H](CCC(N)=O)NC(=O)[C@H](Cc1ccc(O)cc1)NC(=O)[C@@H](NC(=O)[C@H](Cc1ccc(O)cc1)NC(=O)CNC(=O)[C@@H](N)CCCNC(=N)N)C(C)C)C(=O)O [VSV8, reference compound]						pKd (soluble H-2K^b; KD 4° C.): 7.47; pKd (soluble H-2K^b; KD 23° C.): 7.57; pKd (soluble H-2K^b; KD 37° C.): 6.79
DLHWASWV-KLH-oxidised mannan: mimic mutant peptide DLHWASWV conjugated to KLH and oxidised mannan, used as control (also: conjugated to KLH and oxidised mannan)						CTL lysis of MCF7 cells, in words [1]: able to specifically lyse MCF7 cells
SAPDFRPA [MUC1-8-5F]	6.34	6.89	5.31	7	> 10^−7 M	increased peptide affinity by mutation of MUC1-8 (soluble H-2K^b; at 23° C. and 37° C.): at least 7 fold; recognition of all peptides higher than MUC1-8 [2]: 10 fold
SAPDFRPL [MUC1-8-5F8L]	6.80	7.22	6.52	14	> 10^−9 M	increased peptide affinity by mutation of MUC1-8 (soluble H-2K^b; at 23° C.): 14 fold; T cell response by IFN-γ ELISpot, in words (C57BL/6 mice; C57BL/6 mice): the number of sfu/500,000 was higher; precursor frequency (C57BL/6 mice; after immunisation, mouse strain not given): 400 sfu/500,000 cells; T cell response by IFN-γ ELISpot, in words ([2]; MUC1×HLA-A2 transgenic mice (MUC1-8 is self)): generated even higher affinity T cells which recognised all peptides
SAPDTRPA [MUC1-8, reference compound]	6.36	6.06	4.43			pKd (soluble H-2K^b; 4° C., read-out: affinity measured in an inhibition assay): 6.37; pKd (soluble H-2K^b; 23° C., read-out: affinity measured in an inhibition assay): 6.06
SAPDTRPL [MUC1-8-8L]	6.82	6.60	5.05	3	> 10^−6 M	increased peptide affinity by mutation of MUC1-8 (soluble H-2K^b; at 23° C. and 37° C.): at least 3 fold; peptide concentration at which IFN-γ secreting T cells recognised all peptides (C57BL/6 mice; C57BL/6 mice immunised with peptide-pulsed DC): 10^−9-10^−5 M; recognition of all peptides higher than MUC1-8 [2]: 10 fold
STAPPAHGV (listed as Homo sapiens)						binding affinity to HLA-A2, in words (HLA-A2): low-medium affinity
TTAPPVHGL (Artifical sequence derived from human or mouse MUC1 T cell epitope)						CTL lysis of MCF7 cells, in words [4]: lysed MCF7 cells similarly to STAPPAHGV
TTAPPVHGL-KLH-oxidised mannan: peptide TTAPPVHGL coupled to KLH via glutaraldehyde and then to oxidised mannan (also: conjugated to KLH, conjugated to oxidised mannan)						CTL lysis of MCF7 cells, in words [4]: able to specifically lyse MCF7 cells
